Data taken from ChEMBL document CHEMBL4152230, “Discovery of N-{3-[(ethanimidoylamino)methyl]benzyl}-l-prolinamide dihydrochloride: A new potent and selective inhibitor of the inducible nitric oxide synthase as a promising agent for the therapy of malignant glioma” (Eur J Med Chem, 2018).
The source made the active and inactive calls. No cut-off for these calls is given here.

Experiments:
[1] = target: T1, Nitric oxide synthase, inducible (Mus musculus, UniProt P29477); assay: Inhibition of recombinant mouse iNOS using [3H]L-arginine as substrate preincubated for 15 mins followed by NADPH addition measured after 20 mins in presence of FMN/FAD by liquid scintillation counting method
T1 sequence (P29477 whole entry): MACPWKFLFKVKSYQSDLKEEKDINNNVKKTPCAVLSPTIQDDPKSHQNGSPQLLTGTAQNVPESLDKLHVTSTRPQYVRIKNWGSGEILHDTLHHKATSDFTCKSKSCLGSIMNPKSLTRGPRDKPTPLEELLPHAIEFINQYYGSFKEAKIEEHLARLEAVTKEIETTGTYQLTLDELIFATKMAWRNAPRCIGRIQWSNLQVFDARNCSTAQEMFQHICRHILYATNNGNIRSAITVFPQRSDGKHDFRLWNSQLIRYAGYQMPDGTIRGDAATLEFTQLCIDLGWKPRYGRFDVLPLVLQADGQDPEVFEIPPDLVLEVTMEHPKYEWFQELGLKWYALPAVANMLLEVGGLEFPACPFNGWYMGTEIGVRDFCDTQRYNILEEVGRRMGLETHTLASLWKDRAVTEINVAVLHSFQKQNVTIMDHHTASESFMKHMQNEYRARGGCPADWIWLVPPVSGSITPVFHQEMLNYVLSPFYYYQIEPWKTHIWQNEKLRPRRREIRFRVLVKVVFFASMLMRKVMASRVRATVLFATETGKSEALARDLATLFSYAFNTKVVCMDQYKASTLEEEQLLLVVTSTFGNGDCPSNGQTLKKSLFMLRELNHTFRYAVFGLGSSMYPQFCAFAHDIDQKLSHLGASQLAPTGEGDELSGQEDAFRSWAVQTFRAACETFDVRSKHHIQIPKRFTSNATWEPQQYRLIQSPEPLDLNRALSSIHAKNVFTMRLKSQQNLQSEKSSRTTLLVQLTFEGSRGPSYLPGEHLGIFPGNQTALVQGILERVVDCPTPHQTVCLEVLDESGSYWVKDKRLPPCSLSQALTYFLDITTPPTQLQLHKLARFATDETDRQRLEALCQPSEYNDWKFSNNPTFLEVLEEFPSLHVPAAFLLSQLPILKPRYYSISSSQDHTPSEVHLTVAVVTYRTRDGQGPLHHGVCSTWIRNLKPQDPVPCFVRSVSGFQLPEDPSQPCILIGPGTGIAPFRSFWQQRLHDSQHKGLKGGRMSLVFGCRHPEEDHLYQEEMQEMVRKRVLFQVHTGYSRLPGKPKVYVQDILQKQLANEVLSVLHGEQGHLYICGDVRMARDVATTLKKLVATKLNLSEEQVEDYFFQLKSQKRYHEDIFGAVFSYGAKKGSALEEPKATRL

[2] = Selectivity index, ratio of IC50 for recombinant bovine eNOS to IC50 for recombinant mouse iNOS
Nitric oxide synthase 3 = target: T2, Nitric oxide synthase 3 (Bos taurus, UniProt P29473); assay: Inhibition of recombinant bovine eNOS using [3H]L-arginine as substrate preincubated for 15 mins followed by NADPH addition measured after 20 mins in presence of FMN/FAD by liquid scintillation counting method
T2 sequence (P29473 whole entry): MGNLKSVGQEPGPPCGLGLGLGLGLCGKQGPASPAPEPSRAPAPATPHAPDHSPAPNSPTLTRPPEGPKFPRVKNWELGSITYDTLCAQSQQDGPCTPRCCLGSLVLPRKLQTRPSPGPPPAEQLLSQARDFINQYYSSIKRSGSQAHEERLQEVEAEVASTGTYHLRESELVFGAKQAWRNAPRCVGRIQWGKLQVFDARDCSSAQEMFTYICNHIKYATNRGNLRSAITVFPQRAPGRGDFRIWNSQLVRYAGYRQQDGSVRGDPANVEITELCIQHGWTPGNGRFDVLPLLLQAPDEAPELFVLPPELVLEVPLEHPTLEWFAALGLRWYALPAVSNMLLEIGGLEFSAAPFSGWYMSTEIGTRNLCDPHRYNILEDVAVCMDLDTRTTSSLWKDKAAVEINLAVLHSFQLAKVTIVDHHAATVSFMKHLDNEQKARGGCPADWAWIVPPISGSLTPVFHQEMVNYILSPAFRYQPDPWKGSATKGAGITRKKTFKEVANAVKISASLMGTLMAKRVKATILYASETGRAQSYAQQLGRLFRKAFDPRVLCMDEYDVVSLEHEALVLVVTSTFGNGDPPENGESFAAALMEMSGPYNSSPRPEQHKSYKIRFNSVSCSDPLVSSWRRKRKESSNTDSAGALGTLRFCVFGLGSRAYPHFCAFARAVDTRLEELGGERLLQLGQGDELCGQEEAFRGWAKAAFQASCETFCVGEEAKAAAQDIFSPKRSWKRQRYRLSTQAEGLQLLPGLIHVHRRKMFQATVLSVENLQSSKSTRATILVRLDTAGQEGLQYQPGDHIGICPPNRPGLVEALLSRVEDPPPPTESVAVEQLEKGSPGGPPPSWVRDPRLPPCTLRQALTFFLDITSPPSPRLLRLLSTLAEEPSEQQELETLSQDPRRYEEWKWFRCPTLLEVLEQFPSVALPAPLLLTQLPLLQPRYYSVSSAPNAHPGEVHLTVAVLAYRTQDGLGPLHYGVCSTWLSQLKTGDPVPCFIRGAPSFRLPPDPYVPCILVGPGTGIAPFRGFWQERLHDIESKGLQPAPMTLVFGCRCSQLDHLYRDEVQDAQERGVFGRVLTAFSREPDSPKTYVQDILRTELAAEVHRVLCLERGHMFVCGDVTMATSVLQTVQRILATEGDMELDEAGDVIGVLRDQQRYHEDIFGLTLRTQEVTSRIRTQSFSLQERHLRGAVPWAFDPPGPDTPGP

C6 [3] = assay: Cytotoxicity against rat C6 cells assessed as cell proliferation at 0.25 mM after 48 hrs by MTT assay relative to control; type: functional; settings: C6, 48 h, read-out: Activity
C6 [4] = assay: Cytotoxicity against rat C6 cells assessed as cell proliferation at 1 mM after 24 hrs by MTT assay relative to control; type: functional; settings: C6, 24 h, read-out: Activity
C6 [5] = assay: Cytotoxicity against rat C6 cells assessed as inhibition of cell proliferation after 24 to 48 hrs by MTT assay; type: functional, cell-based
[6] = Half life in human plasma by HPLC analysis; type: ADME, cell-free
C6 [7] = assay: Cytotoxicity against rat C6 cells assessed as LDH release at 1 mM after 72 hrs by CytoTox96 non-radioactive assay (reference value: 5.41%); type: functional
C6 [8] = assay: Cytotoxicity against rat C6 cells assessed as LDH release at 1.5 mM after 72 hrs by CytoTox96 non-radioactive assay (reference value: 5.41%); type: functional
C6 [9] = assay: Cytotoxicity against rat C6 cells assessed as LDH release at 0.25 mM after 72 hrs by CytoTox96 non-radioactive assay (reference value: 5.41%); type: functional
C6 [10] = assay: Cytotoxicity against rat C6 cells assessed as cell proliferation at 2 mM after 24 hrs by MTT assay relative to control; type: functional; settings: C6, 24 h, read-out: Activity
[11] = Half life in pH 7.4 PBS buffer after 24 hrs by HPLC analysis; type: physicochemical; settings: pH 7.4, pH 7.4
[12] = Cytotoxicity against rat CTX/TNA2 cells assessed as inhibition of cell proliferation at 0.25 to 2 mM up to 72 hrs by MTT assay; type: cell-based; settings: 2000 µM
C6 [13] = assay: Cytotoxicity against rat C6 cells assessed as cell proliferation at 1.5 mM after 24 hrs by MTT assay relative to control; type: functional; settings: C6, 24 h, read-out: Activity
C6 [14] = assay: Cytotoxicity against rat C6 cells assessed as LDH release at 0.75 mM after 72 hrs by CytoTox96 non-radioactive assay (reference value: 5.41%); type: functional
[15] = target: Nitric oxide synthase, inducible (Rattus norvegicus) (UniProt Q06518); assay: Ex vivo inhibition of iNOS in mesenteric vascular arteries isolated from LPS-induced septic shock Sprague-Dawley rat model assessed as increase in noradrenaline-mediated vasoconstriction by measuring changes in perfusion pressure at 0.06 uM preincubated for 30 mins followed by noradrenaline treatment
Nitric oxide synthase, inducible (Rattus norvegicus), sequence (Q06518 whole entry, the tested form may be a part): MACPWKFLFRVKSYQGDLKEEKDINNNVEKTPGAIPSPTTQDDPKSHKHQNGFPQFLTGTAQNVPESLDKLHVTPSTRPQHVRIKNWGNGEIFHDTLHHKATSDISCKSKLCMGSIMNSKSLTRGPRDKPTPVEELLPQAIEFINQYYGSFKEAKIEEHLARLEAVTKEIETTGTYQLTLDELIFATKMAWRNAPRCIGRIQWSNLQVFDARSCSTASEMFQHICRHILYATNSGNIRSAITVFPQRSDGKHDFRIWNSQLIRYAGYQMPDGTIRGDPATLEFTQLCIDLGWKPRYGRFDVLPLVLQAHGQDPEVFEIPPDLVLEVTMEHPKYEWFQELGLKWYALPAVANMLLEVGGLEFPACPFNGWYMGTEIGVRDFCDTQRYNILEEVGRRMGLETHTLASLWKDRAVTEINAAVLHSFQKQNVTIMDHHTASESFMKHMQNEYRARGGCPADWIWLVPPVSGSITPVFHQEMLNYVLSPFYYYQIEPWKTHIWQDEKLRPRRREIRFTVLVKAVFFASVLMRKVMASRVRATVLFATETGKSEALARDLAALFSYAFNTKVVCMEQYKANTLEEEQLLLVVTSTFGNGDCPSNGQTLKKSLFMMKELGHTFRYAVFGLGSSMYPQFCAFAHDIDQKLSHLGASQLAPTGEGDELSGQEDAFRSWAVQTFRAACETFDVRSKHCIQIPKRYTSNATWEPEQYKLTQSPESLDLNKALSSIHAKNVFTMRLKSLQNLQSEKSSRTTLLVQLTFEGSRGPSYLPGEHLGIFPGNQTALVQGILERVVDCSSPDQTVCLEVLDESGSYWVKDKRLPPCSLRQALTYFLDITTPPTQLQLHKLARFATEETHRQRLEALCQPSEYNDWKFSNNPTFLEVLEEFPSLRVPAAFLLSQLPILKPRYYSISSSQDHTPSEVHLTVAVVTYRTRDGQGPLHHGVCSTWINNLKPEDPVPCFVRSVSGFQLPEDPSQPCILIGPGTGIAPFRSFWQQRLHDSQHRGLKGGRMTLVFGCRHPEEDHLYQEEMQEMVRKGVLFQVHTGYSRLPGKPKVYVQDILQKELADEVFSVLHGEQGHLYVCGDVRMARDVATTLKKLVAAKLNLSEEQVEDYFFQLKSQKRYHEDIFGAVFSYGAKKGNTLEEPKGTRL

C6 [16] = assay: Cytotoxicity against rat C6 cells assessed as cell proliferation at 1 mM after 72 hrs by MTT assay relative to control; type: functional; settings: C6, 72 h, read-out: Activity
C6 [17] = assay: Cell cycle arrest in rat C6 cells assessed as accumulation at S phase at 1.5 mM after 72 hrs by propidium iodide staining based flow cytometry (reference value: 22.64%); type: functional
C6 [18] = assay: Cytotoxicity against rat C6 cells assessed as LDH release at 2 mM after 72 hrs by CytoTox96 non-radioactive assay (reference value: 5.41%); type: functional
[19] = Selectivity ratio of IC50 for recombinant rat nNOS to IC50 for recombinant mouse iNOS
C6 [20] = assay: Cytotoxicity against rat C6 cells assessed as cell proliferation at 2 mM after 72 hrs by MTT assay relative to control; type: functional; settings: C6, 72 h, read-out: Activity
[21] = Cytotoxicity against rat CTX/TNA2 cells assessed as cell proliferation at 1 mM after 48 hrs by MTT assay relative to control; type: cell-based; settings: read-out: Activity
Nitric oxide synthase 1 = Nitric oxide synthase 1 (Rattus norvegicus, UniProt P29476); assay: Inhibition of recombinant rat nNOS using [3H]L-arginine as substrate preincubated for 15 mins followed by NADPH addition measured after 20 mins in presence of FMN/FAD by liquid scintillation counting method
Nitric oxide synthase 1, sequence (P29476 whole entry): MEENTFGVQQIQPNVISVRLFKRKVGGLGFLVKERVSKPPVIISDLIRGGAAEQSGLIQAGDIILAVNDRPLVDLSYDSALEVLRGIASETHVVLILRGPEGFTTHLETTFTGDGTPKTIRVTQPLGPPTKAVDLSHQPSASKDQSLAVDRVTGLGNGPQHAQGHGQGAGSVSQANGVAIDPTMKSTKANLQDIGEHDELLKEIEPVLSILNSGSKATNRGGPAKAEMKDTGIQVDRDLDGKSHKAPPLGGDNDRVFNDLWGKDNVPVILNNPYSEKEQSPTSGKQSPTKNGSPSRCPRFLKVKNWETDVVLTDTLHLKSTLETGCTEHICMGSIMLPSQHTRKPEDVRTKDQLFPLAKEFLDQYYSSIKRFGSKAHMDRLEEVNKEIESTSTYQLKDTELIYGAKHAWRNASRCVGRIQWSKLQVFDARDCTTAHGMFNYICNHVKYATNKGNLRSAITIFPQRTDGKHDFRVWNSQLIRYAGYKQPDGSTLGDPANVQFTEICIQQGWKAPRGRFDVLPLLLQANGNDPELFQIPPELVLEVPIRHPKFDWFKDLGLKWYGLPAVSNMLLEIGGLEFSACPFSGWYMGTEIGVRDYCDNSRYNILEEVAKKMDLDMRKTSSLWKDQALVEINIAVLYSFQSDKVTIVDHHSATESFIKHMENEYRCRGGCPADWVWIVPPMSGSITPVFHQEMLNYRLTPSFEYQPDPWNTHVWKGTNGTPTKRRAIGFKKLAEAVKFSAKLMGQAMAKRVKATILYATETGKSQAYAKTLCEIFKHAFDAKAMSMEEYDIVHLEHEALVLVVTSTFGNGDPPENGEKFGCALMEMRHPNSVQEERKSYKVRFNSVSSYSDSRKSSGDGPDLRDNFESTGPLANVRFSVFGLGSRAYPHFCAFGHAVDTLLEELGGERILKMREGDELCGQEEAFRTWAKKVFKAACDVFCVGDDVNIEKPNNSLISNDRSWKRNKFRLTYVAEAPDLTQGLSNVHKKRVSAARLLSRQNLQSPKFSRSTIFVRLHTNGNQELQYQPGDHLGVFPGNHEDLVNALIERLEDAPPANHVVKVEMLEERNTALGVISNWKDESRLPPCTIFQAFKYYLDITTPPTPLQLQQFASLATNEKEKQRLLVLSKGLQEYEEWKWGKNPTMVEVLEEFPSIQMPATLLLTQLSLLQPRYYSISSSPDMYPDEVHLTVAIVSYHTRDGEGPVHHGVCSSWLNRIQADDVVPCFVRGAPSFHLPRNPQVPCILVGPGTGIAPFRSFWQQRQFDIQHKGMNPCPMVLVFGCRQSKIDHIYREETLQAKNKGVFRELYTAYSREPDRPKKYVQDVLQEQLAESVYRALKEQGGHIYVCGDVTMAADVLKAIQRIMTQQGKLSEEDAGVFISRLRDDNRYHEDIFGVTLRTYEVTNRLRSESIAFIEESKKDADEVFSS

C6 [22] = assay: Cytotoxicity against rat C6 cells assessed as LDH release at 0.5 mM after 72 hrs by CytoTox96 non-radioactive assay (reference value: 5.41%); type: functional
C6 [23] = assay: Cytotoxicity against rat C6 cells assessed as cell proliferation at 1.5 mM after 72 hrs by MTT assay relative to control; type: functional; settings: C6, 72 h, read-out: Activity
[24] = Half life in pH 2 HCl after 24 hrs by HPLC analysis; type: physicochemical; settings: HCl solution, pH 2, pH 2
[25] = Half life in pH 9 NaOH solution after 24 hrs by HPLC analysis; type: physicochemical; settings: pH 9, pH 9
C6 [26] = assay: Cell cycle arrest in rat C6 cells assessed as accumulation at G1 phase at 1.5 mM after 72 hrs by propidium iodide staining based flow cytometry (reference value: 63.97%); type: functional
[27] = Cytotoxicity against rat CTX/TNA2 cells assessed as cell proliferation at 1 mM after 24 hrs by MTT assay relative to control; type: cell-based; settings: read-out: Activity

Compound `CC(=N)NCc1cccc(CNC(=O)[C@@H](N)CCC(=O)O)c1` has an IC50 [1] of 1.23 µM, a Ratio IC50 [2] of 8 and an IC50 (Nitric oxide synthase 3) of 10 µM.

Work on `CC[C@H](C)[C@H](N)C(=O)NCc1cccc(CNC(C)=N)c1` yielded an IC50 [1] of 0.17 µM, a Ratio IC50 [2] greater than 5850 and an IC50 (Nitric oxide synthase 3) greater than 1000 µM.

In the case of `CC(=N)NCc1cccc(CNC(=O)[C@@H](N)[C@@H](C)O)c1`, the IC50 [1] is reported as greater than 10 µM.

In the case of `CC(=N)NCc1cccc(CNC(=O)[C@@H](N)Cc2ccccc2)c1`, the IC50 [1] is reported as greater than 10 µM.

Work on `CC(=N)NCc1cccc(CNC(=O)[C@@H](N)C(C)C)c1` yielded an IC50 [1] greater than 10 µM.

Work on `CC(=N)NCc1cccc(CNC(=O)[C@@H](N)CCC(N)=O)c1` yielded an IC50 [1] greater than 10 µM.

In the case of `CC(=N)NCc1cccc(CNC(=O)[C@@H]2CCCN2)c1.Cl.Cl`, the growth at 250 µM (C6 [3]) is reported as 80.4%, the growth at 1000 µM (C6 [4]) is reported as 118% and the inhibition (C6 [5]) is reported as “Dose-dependent effect”. For the same compound, the half-life [6] was 11 h, the IC50 [1] was 0.058 µM and the Activity (C6 [7]) was 16.78%. It also gave an Activity (C6 [8]) of 23.27%, an Activity (C6 [9]) of 26.54% and a growth at 2000 µM (C6 [10]) of no more than 89.5%. For the same compound, the half-life [11] was greater than 24 h, the Activity [12] was “Non-Toxic” and the growth at 1500 µM (C6 [13]) was 114%. The Activity (C6 [14]) was 20.99%, the inhibition [15] was “Active” and the growth at 1000 µM (C6 [16]) was 77.5%. For the same compound, the Ratio IC50 [2] was 4570, the Activity (C6 [17]) was 12.12% and the Activity (C6 [18]) was “<=25.52%”. The Ratio IC50 [19] was greater than 172, the growth at 2000 µM (C6 [20]) was 55.2% and the viability at 48 h, 1000 µM [21] was 125%. For the same compound, the IC50 (Nitric oxide synthase 1) was greater than 10 µM, the Activity (C6 [22]) was 27.21% and the growth at 1500 µM (C6 [23]) was 63.2%. It also gave a half-life [24] greater than 24 h, an IC50 (Nitric oxide synthase 3) of 265 µM and a half-life [25] greater than 24 h. For the same compound, the Activity (C6 [26]) was 71.79% and the viability at 24 h, 1000 µM [27] was 122%.

In the case of `CC(=N)NCc1cccc(CNC(=O)[C@@H](N)CS)c1`, the IC50 [1] is reported as greater than 10 µM.

Work on `CC(=N)NCc1cccc(CNC(=O)[C@@H](N)CC(C)C)c1` yielded an IC50 [1] of 0.253 µM, a Ratio IC50 [2] of 1180 and an IC50 (Nitric oxide synthase 3) of 300 µM.

`CSCC[C@H](N)C(=O)NCc1cccc(CNC(C)=N)c1` showed an IC50 [1] greater than 10 µM.
